Earlier results on twelve compounds are cited in PubChem BioAssay AID1259410 (Chemical Carcinogenesis Research Information System (CCRIS), 2018).

This data set relates to rodent tumor promotion studies, tumor incidence. Briefly: CCRIS tumor promotion studies.

On to `CCOc1ccc2c(c1)C(C)=CC(C)(C)N2`, for which the outcome is “colon: tumor” (Carcinogen: 1,2-DIMETHYLHYDRAZINE, 540-73-8, Doses [Carcinogen]: 20 MG/KG 1/WK FOR 4 WK, Doses [Promoter]: 0, 0.8% IN DIET FOR 36 WK (STUDY DURATION: 40 WK), Route [Carcinogen]: SUBCUTANEOUS, Route [Promoter]: ORAL, Species: RAT, Strain/Sex: F344/MALE); “urinary bladder: papilloma, carcinoma” (Carcinogen: N-BUTYL-N-(4-HYDROXYBUTYL)NITROSAMINE, 3817-11-6, Doses [Carcinogen]: 0.05% IN DRINKING WATER FOR 4 WK, Doses [Promoter]: 0, 0.8% IN DIET FOR 32 WK (STUDY DURATION: 36 WK), Route [Carcinogen]: ORAL, Route [Promoter]: ORAL, Species: RAT, Strain/Sex: F344/MALE); “bladder: papilloma” (Carcinogen: N-BUTYL-N-(4-HYDROXYBUTYL)NITROSAMINE, 3817-11-6, Doses [Carcinogen]: 0.05% IN DRINKING WATER FOR 4 WK, Doses [Promoter]: 0, 0.8% IN DIET FOR 32 WK BEGINNING POST CARCINOGEN (STUDY DURATION: 36 WK), Route [Carcinogen]: ORAL, Route [Promoter]: ORAL, Species: RAT, Strain/Sex: F344/MALE); “kidney: adenoma” (Carcinogen: N-ETHYL-N-(HYDROXYETHYL)NITROSAMINE, 13147-25-6, Doses [Carcinogen]: 0.1% IN DRINKING WATER FOR 2 WK, Doses [Promoter]: 0, 0.8% IN DIET FOR 29 WK (STUDY DURATION: 31 WK), Route [Carcinogen]: ORAL, Route [Promoter]: ORAL, Species: RAT, Strain/Sex: F344/MALE). For `Cn1c(=O)c2c(ncn2C)n(C)c1=O`, under “Carcinogen: N-NITROSOBIS(2-OXOPROPYL)AMINE, 60599-38-4, Doses [Carcinogen]: 10 MG/KG 1/WK FOR 3 WK, Doses [Promoter]: 0, 2000 PPM IN DRINKING WATER BEGINNING POST CARCINOGEN TREATMENT AND CONTINUING FOR 37 WK (STUDY DURATION: 40 WK), Route [Carcinogen]: SUBCUTANEOUS, Route [Promoter]: ORAL, Species: HAMSTER, Strain/Sex: HAMSTER/FEMALE”, the outcome is given as “pancreas: adenocarcinoma”. As for `CNc1ccccc1C(=O)O[C@@H]1[C@@H](C)[C@@]2(O)[C@@H](C=C(CO)C[C@]3(O)C(=O)C(C)=C[C@@H]23)[C@@H]2C(C)(C)[C@]12OC(C)=O`, the outcome (Carcinogen: 7,12-DIMETHYLBENZ[A]ANTHRACENE, 57-97-6, Doses [Carcinogen]: 10 NMOL ONCE, Doses [Promoter]: 0, 3.3 NMOL 2/WK FOR 20 WK (STUDY DURATION: 20 WK), Route [Carcinogen]: DERMAL, Route [Promoter]: DERMAL, Species: MOUSE, Strain/Sex: SENCAR) is on record as “skin: papilloma”. Take `C=C1C[C@@H]2[C@H](CC[C@]3(C)C(=O)CC[C@@H]23)[C@@]2(C)C=CC(=O)C=C12`: the outcome (Carcinogen: N-Methyl-N-nitrosourea, 684-93-5, Doses [Carcinogen]: 50 mg/kg bw, intraperitoneal, twice on days 43 and 49 of age, Doses [Promoter]: 0, 0.0001, 0.001% in diet from 7 d before carcinogen administration for 12 wks (Study duration 12 wks), Route [Carcinogen]: intraperitoneal, Route [Promoter]: Oral, Species: Rat, Strain/Sex: Sprague-Dawley/Female (19-20/Group)) was “mammary gland: various (statistically significant increase in tumor frequency, b”. As for `CC(CCC(=O)NCCS(=O)(=O)O)[C@H]1CC[C@H]2[C@@H]3CC[C@@H]4C[C@H](O)CC[C@]4(C)[C@H]3C[C@H](O)[C@]12C` (stereo not given in full), under “Doses [Carcinogen]: IR, Route [Carcinogen]: RECTAL, Route [Promoter]: RECTAL, Species: RAT, Strain/Sex: MALE,FEMALE”, the outcome is reported as “colon”. As to `C=C[C@@]1(C)CC[C@](C)(C(C)C)c2cc3c4c(c[nH]c4c21)C[C@@H](CO)NC(=O)[C@H](C(C)C)N3C`, the outcome (Carcinogen: 7,12-DIMETHYLBENZ[A]ANTHRACENE, 57-97-6, Doses [Carcinogen]: 100 UG ONCE, Doses [Promoter]: 0, 5.5 NMOL 2/WK FOR 19 WK BEGINNING 1 WK POST CARCINOGEN DOSE (STUDY DURATION: 20 WK), Route [Carcinogen]: DERMAL, Route [Promoter]: DERMAL, Species: MOUSE, Strain/Sex: CD-1/FEMALE) was “skin: tumor” and the outcome (Carcinogen: 7,12-DIMETHYLBENZ[A]ANTHRACENE, Doses [Carcinogen]: 100 UG ONCE, Doses [Promoter]: 2.5 UG IN ACETONE 2/WK FOR 30 WK, Route [Carcinogen]: DERMAL, Route [Promoter]: DERMAL, Species: MOUSE, Strain/Sex: CD-1/FEMALE) is reported as “integumentary system (skin): papilloma, carcinoma”. As to `CN(C)c1ncnc2nc[nH]c12`, the outcome by setting is: (Carcinogen: DIETHYLNITROSAMINE, 55-18-5, 2-ACETYLAMINOFLUORENE, 53-96-3, CARBON TETRACHLORIDE, 56-23-5, Carcinogen: DIETHYLNITROSAMINE, 55-18-5, 2-ACETYLAMINOFLUORENE, 53-96-3, CARBON TETRACHLORIDE, 56-23-5, Doses [Carcinogen]: 200 MG/KG BW ONCE FOLLOWED 2 WK LATER BY 0.03% 2-ACETYLAMINOFLUORENE IN DIET FOR 2 WK PLUS 2 ML/KG CARBON TETRACHLORIDE, Doses [Promoter]: 0, 0.015% IN DIET FOR 21 WK BEGINNING AT END OF INITIATION PHASE (STUDY DURATION: 25 WK), Route [Carcinogen]: INTRAPERITONEAL, ORAL, Route [Carcinogen]: INTRAPERITONEAL, ORAL, Route [Promoter]: ORAL, Species: RAT, Strain/Sex: WISTAR/MALE) “liver: hepatocellular carcinoma”; (Carcinogen: DIETHYLNITROSAMINE, 55-18-5, Doses [Carcinogen]: 200 MG/KG BW ONCE, Doses [Promoter]: 0, 0.005, 0.02% IN DIET FOR 23 WK BEGINNING 2 WK POST CARCINOGEN TREATMENT (STUDY DURATION: 25 WK), Doses [Promoter]: 0, 0.005, 0.02% IN DIET FOR 23 WK BEGINNING 2 WK POST CARCINOGEN TREATMENT (STUDY DURATION: 25 WK), Route [Carcinogen]: INTRAPERITONEAL, Route [Promoter]: ORAL, Species: RAT, Strain/Sex: WISTAR/MALE) “liver: hepatocellular carcinoma”.

For the compound `CCCCCCOc1cc(C)c(O)c(C)c1C`, the outcome runs as follows: (Carcinogen: DIETHYLNITROSAMINE, 55-18-5, N-METHYL-N-NITROSOUREA, 684-93-5, N-BUTYL-N-(4-HYDROXYBUTYL)NITROSAMINE, 3817-11-6, DIMETHY, Carcinogen: DIETHYLNITROSAMINE, 55-18-5, N-METHYL-N-NITROSOUREA, 684-93-5, N-BUTYL-N-(4-HYDROXYBUTYL)NITROSAMINE, 3817-11-6, DIMETHY, Doses [Carcinogen]: 100 MG/KG BW DEN ONCE FOLLOWED BY 20 MG/KG BW MNU 4 TIMES AND 0.05% BBN IN DRINKING WATER DURING FIRST 2 WK THEN 40 MG/K, Doses [Promoter]: 0, 1% IN THE DIET FOR 24 WK BEGINNING 1 DAY POST CARCINOGEN TREATMENT (STUDY DURATION: 28 WK), Route [Carcinogen]: INTRAPERITONEAL, INTRAPERITONEAL, ORAL, SUBCUTANEOUS, ORAL, Route [Carcinogen]: INTRAPERITONEAL, INTRAPERITONEAL, ORAL, SUBCUTANEOUS, ORAL, Route [Promoter]: ORAL, Species: RAT, Strain/Sex: F344/MALE) “tongue: papilloma; forestomach: papilloma”; (Carcinogen: ETHYLNITROSOURETHANE, 614-95-9, Doses [Carcinogen]: 0.01% IN DRINKING WATER FOR 4 WK, Doses [Promoter]: 0, 0.25% IN DIET FOR 36 WK BEGINNING POST CARCINOGEN TREATMENT (STUDY DURATION: 40 WK), Route [Carcinogen]: ORAL, Route [Promoter]: ORAL, Species: RAT, Strain/Sex: F344/MALE) “forestomach: papilloma, carcinoma”. Regarding `CCCCCCCCCCCCCCCCCC(=O)OCCOC[C@@H](OCCO)[C@H]1OC[C@@H](OCCO)[C@@H]1OCCO`, where the note is “Carcinogen: 7,12-DIMETHYLBENZ(A)ANTHRACENE, Doses [Carcinogen]: TOP, Route [Carcinogen]: DERMAL, Route [Promoter]: DERMAL, Species: MOUSE, Strain/Sex: MALE”, the outcome is reported as “integumentary system (skin)”. Regarding `Cn1cnc([N+](=O)[O-])c1S`, the outcome (Carcinogen: UV IRRADIATION, Doses [Carcinogen]: 0.53 J/CM2 INCREASED BY 20% EVERY 2 WK TO 1.60 J/CM2 AND MAINTAINED AT 1.60 J/CM2 UNTIL DEATH, ADMINISTERED 5 D/WK FOR 1, Doses [Promoter]: 0, 15 UG/G BEGINNING 2 WK POST FIRST CARCINOGEN DOSE ADMINISTERED 2 HR PRIOR TO EACH CARCINOGEN DOSE (STUDY DURATION: 30, Route [Carcinogen]: DERMAL, Route [Promoter]: INTRAPERITONEAL, Species: MOUSE, Strain/Sex: SKH/HRL/FEMALE) was “skin: tumor”. In the case of `O=P(O)(O)O`, the outcome reads like this: (Carcinogen: N-BUTYL-N-(4-HYDROXYBUTYL)NITROSAMINE, 3817-11-6, Doses [Carcinogen]: 0.05% IN DRINKING WATER FOR 4 WK, Doses [Promoter]: 0, 1.4% IN DIET FOR 32 WK BEGINNING POST CARCINOGEN TREATMENT (STUDY DURATION: 36 WK), Route [Carcinogen]: ORAL, Route [Promoter]: ORAL, Species: RAT, Strain/Sex: F344/MALE) “urinary bladder: papilloma”; (Carcinogen: N-ETHYL-N-HYDROXYETHYLNITROSAMINE, 13147-25-6, Doses [Carcinogen]: 1000 PPM IN DIET FOR 2 WK, Doses [Promoter]: 0, 10% IN DIET OF UNILATERALLY NEPHRECTOMIZED RATS BEGINNING POST CARCINOGEN TREATMENT AND CONTINUING FOR 18 WK (STUDY D, Route [Carcinogen]: ORAL, Route [Promoter]: ORAL, Species: RAT, Strain/Sex: WISTAR/MALE) “kidney: renal cell tumor”; (Carcinogen: N-ETHYL-N-HYDROXYETHYLNITROSAMINE, 13147-25-6, Doses [Carcinogen]: 1000 PPM IN DIET FOR 2 WK, Doses [Promoter]: 0, 50000 PPM IN DIET FOR 18 WK ADMINISTERED TO UNILATERALLY NEPHRECTOMIZED RATS (STUDY DURATION: 20 WK), Route [Carcinogen]: ORAL, Route [Promoter]: ORAL, Species: RAT, Strain/Sex: WISTAR/MALE) “kidney: renal cell tumor”. As to `O=[N+]([O-])c1ccc2ccc3cccc4ccc1c2c34`, the outcome (Carcinogen: POLYCHLORINATED BIPHENYLS, 1336-36-3, Doses [Carcinogen]: 2.5 MG/KG ONCE, Doses [Promoter]: 0, 1575 MG/KG IN DMSO ADMINISTERED IN 17 DOSES 3/WK BEGINNING POST CARCINOGEN TREATMENT (STUDY DURATION: 18 WK), Route [Carcinogen]: INTRAPERITONEAL, Route [Promoter]: INTRAPERITONEAL, Species: MOUSE, Strain/Sex: A/J/MALE) is “lung: adenoma and adenocarcinoma”.
